In patent publication US20130131059A1, “METHOD FOR TREATING OPHTHALMIC DISEASES USING KINASE INHIBITOR COMPOUNDS IN PRODRUG FORMS” (INSPIRE PHARMACEUTICALS, INC., priority 2010, published 2013):
Like-named read-outs stand apart in the source and are kept apart here.

How the values were obtained:
[1] = Ocular comfort, composite behaviour score after ocular instillation; format: in vivo, rabbit; conditions: 4 mM, two drops to right eye, evaluated for 15 minutes; FIGS. 1 and 2
Method: The desired compound at a concentration of 4 mM in a formulation of 10 mM phosphate, 1% polysorbate 80, 0.85% NaCl, 0.02% BAC, 0.2% EDTA pH 7.0 was administered as two 30 µl drops to the right eye of each rabbit within a dosing group. The rabbits were evaluated for 15 minutes after ocular instillation and their changes in behavior were recorded. […] The higher the score, the more discomfort an animal senses. A mean ±SE was generated for each group and depicted in FIGS. 1 and 2.

ROCK1 = target: T1, ROCK1 (Homo sapiens, UniProt Q13464); experiment: Rho kinase inhibition assay (IMAP fluorescence polarization), ROCK1; format: biochemical; conditions: 10 μM ATP, 60 min at room temperature; read-out: ROCK1 IC50
T1 construct: purchased Upstate/Chemicon 14-601
Method: (§1) Following the pre-incubation, 10 μM ATP was added to initiate the reaction. After 60 minutes at room temperature, Molecular Devices IMAP™ binding solution was added to bind phosphorylated substrate. After 30 minutes of incubation in the presence of the IMAP™ beads, the fluorescence polarization was read and the ratio was reported as mP.

[2] = Ocular surface and aqueous humor bioavailability; format: in vivo, New Zealand White rabbits; conditions: New Zealand White, rabbit, topical, 30 μl of 1 mM (0.04% w/v) per eye, Compound 14 dosed 1 mM, 1 × 30 uL, 4 eyes, time 0.83 h
[3] = Ocular surface and aqueous humor bioavailability; format: in vivo, New Zealand White rabbits; conditions: New Zealand White, rabbit, topical, 30 μl of 1 mM (0.04% w/v) per eye, Compound 14 dosed 1 mM, 1 × 30 uL, 4 eyes
Method: Dose Formulation and Administration. Compounds 14 (prodrug) and 49 (base compound) were formulated at 0.04% w/v (the equivalent millimolar concentration is 1 mM) in 10 mM phosphate, 0.8% polysorbate 80, 0.85% NaCl, 0.01% BAC, 0.1% EDTA at pH 7.3. Each compound was administered as a 30 μl drop to both eyes of each animal within a dosing group and the ocular and systemic exposure was examined as described in Example 49.
Study sampling. 40 μL of saline was applied to the eyes at 0.083, 1, 2, and 4 hours after administration of each compound and the lavage fluids were collected as samples. Aqueous humor and ocular surface samples were obtained from 2 animals (4 eyes) per dosing group at 0.083, 1, 2, and 4 hours post dosing, by the methods described in Example 49. Ocular surface relates to the surface of the cornea and conjunctiva. Ocular surface residence time is the average time that a compound resides on the ocular surface.

ROCK2 = target: T2, ROCK2 (Homo sapiens, UniProt O75116); experiment: Rho kinase inhibition assay (IMAP fluorescence polarization), ROCK2; format: biochemical; conditions: 10 μM ATP, 60 min at room temperature
T2 construct: purchased Upstate/Chemicon 14-451
Method: as §1, with “(Molecular Devices product number R7184) was pre-incubated with a test compound for 5 minutes in buffer containing 10 mM Tris-HCl pH 7.2, 10 mM MgCl2, and 0.1% BSA. Following” for “Following”
See Tian et al., Arch. Ophthalmol. […] Ophthalmol. Vis. […] Ophthalmol. […] Cytoskel. […] Ophthalmol. Vis. […] Ophthalmol. Vis.

[4] = aqueous humor, read-out: Aqueous Humor concentration of [14], Mean
[5] = ocular surface (saline lavage fluid), read-out: Ocular Surface concentration of [14], Mean

T1 sequence (Q13464 whole entry): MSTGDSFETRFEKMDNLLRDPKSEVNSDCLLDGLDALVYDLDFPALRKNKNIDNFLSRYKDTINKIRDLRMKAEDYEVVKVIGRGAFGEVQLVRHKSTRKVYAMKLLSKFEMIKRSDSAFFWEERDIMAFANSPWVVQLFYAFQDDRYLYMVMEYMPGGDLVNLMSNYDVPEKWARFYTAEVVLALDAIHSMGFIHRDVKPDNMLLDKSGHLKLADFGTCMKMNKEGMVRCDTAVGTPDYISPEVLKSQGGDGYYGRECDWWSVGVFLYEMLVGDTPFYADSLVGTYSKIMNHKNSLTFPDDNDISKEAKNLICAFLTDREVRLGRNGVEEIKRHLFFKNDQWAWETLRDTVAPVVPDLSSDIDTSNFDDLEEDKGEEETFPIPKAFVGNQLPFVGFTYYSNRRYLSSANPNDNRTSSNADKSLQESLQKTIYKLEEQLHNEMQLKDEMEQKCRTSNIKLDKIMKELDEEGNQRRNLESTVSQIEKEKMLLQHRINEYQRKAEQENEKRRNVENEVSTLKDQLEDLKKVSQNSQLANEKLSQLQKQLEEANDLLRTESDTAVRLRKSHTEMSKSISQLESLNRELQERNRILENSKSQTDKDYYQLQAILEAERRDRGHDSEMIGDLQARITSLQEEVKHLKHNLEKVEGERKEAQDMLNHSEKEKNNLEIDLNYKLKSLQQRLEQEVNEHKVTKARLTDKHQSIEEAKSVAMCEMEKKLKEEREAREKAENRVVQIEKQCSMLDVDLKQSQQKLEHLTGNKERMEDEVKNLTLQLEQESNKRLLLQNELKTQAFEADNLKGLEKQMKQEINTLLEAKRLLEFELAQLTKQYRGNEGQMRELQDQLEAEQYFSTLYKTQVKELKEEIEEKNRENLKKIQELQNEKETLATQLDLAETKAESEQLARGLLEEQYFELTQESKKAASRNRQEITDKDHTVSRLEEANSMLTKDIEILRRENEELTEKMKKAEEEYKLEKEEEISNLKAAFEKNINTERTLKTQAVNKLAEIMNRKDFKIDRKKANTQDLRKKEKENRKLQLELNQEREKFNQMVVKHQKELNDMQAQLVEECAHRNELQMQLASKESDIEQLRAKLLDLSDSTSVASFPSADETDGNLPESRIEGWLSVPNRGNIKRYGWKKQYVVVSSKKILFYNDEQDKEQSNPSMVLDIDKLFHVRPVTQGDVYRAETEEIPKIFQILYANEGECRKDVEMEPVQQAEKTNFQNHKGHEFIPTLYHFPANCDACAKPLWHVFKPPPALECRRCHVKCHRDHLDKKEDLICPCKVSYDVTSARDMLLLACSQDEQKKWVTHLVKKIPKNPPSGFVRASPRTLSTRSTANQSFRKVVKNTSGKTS
T2 sequence (O75116 whole entry): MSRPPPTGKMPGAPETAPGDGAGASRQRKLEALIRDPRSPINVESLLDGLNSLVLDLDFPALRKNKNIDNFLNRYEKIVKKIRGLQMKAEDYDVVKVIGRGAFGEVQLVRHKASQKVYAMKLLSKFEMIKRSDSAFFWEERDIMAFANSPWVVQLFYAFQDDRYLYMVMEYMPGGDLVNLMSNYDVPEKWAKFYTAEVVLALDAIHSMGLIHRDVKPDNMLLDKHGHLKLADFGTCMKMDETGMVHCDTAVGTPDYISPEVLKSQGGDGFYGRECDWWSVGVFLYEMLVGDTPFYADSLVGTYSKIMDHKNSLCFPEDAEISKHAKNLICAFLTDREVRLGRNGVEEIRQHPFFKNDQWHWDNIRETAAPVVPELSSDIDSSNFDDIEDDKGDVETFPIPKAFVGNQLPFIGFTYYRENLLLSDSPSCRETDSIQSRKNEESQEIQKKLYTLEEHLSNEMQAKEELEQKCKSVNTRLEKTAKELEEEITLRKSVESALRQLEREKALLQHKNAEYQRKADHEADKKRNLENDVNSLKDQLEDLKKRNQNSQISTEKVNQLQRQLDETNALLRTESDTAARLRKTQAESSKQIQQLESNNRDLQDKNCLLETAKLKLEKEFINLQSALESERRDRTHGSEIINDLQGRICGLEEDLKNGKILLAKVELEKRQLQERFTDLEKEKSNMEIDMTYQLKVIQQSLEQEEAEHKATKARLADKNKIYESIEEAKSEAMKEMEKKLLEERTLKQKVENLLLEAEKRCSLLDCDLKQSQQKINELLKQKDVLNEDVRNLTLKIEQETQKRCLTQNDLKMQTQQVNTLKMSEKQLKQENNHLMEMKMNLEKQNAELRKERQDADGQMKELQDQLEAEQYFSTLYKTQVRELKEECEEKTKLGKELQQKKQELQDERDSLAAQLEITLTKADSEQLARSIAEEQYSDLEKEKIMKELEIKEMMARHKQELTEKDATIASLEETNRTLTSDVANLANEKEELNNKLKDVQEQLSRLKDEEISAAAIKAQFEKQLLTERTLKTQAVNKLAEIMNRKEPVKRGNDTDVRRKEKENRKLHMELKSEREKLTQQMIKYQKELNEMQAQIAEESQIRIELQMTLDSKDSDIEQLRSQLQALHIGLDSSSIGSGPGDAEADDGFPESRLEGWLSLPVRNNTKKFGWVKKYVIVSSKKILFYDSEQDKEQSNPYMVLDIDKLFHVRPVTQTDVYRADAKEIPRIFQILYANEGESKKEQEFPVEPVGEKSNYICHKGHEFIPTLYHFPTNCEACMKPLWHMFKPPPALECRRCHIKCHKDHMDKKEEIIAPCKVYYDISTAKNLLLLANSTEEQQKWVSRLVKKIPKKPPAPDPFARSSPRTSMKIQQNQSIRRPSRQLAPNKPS

IC50 (ROCK1): 2460 nM
concentration at […] [2, 4]: 0 µM
concentration at […] [2, 5]: 24.3 µM
concentration at 1 h [3, 4]: 0 µM
concentration at 2 h [3, 4]: 0 µM
concentration at 4 h [3, 4]: 0 nM
concentration at 1 h [3, 5]: 3.08 µM
concentration at 2 h [3, 5]: 0.245 µM
concentration at 4 h [3, 5]: 0 nM
IC50 (ROCK2): 717 nM
Structure (SMILES): Cc1ccc(CN2CC[C@@H](Nc3cccc4cnccc34)C2)cc1OCCOC(=O)c1ccccc1 [Compound 14, 2-(5-(((R)-3-isoquinolin-5-ylamino)pyrrolidin-1-yl)methyl)-2-methylphenoxy)ethyl benzoate]
Ocular discomfort (composite score) versus parent compound [1]: reduced level of discomfort compared to the parent compound
